According to ChEMBL document CHEMBL3885861, “Open TG-GATES”:

Species on record: Rattus norvegicus
Assay: Open TG-GATES - Regimen: Single
Format: toxicity, organism-based, Sprague-Dawley
Design: regimen Single, gender Male, age 6 weeks
Conditions: in vivo, po, 0 mg/kg, route gavage, dose level Control; for APTT / Bas / Eos / Fbg / Hb / Ht / Lym / MCH / MCHC / MCV / Mono / Neu / PT / Plat / RBC / Ret / WBC: tissue Blood; for KIDNEY_L / KIDNEY_R / KIDNEY_TOTAL: tissue Kidney; for LIVER: tissue Liver; for ALP / ALT / AST / BUN / CRE / DBIL / GLC / K / LDH / Na / PL / RALB / TBIL / TC / TG / TP / gamma-GTP: tissue Plasma

CC(CCc1ccccc1)NCC(O)c1ccc(O)c(C(N)=O)c1 (stereo not given) [LABETALOL]
TERMINAL_BW (3 h): 214.7 g | APTT (3 h): 16 s | Bas (3 h): 0% | Eos (3 h): 1% | Fbg (3 h): 279.6 mg/dL | Hb (3 h): 13 g/dL | Ht (3 h): 38.7% | Lym (3 h): 80.6% | MCH (3 h): 21.4 pg | MCHC (3 h): 33.6% | MCV (3 h): 63.6 fL | Mono (3 h): 3.4% | Neu (3 h): 14.2% | PT (3 h): 13.1 s | Plat (3 h): 108.8 x10_4/uL | RBC (3 h): 608.8 x10_4/ul | Ret (3 h): 8% | WBC (3 h): 90.7 x10_2/uL | KIDNEY_L (3 h): 0.9 g | KIDNEY_R (3 h): 0.9 g | KIDNEY_TOTAL (3 h): 1.8 g | LIVER (3 h): 9.4 g | ALP (3 h): 1611 IU/L | ALT (3 h): 45.8 IU/L | AST (3 h): 77.4 IU/L | BUN (3 h): 11.8 mg/dL | CRE (3 h): 0.2 mg/dL | DBIL (3 h): 0.014 mg/dL | GLC (3 h): 184 mg/dL | K (3 h): 3.8 meq/L | LDH (3 h): 70.6 IU/L | Na (3 h): 142.6 meq/L | PL (3 h): 141.8 mg/dL | RALB (3 h): 2.6 g/dL | TBIL (3 h): 0.048 mg/dL | TC (3 h): 83 mg/dL | TG (3 h): 68.4 mg/dL | TP (3 h): 5.5 g/dL | gamma-GTP (3 h): 1.6 IU/L | TERMINAL_BW (6 h): 213.8 g | APTT (6 h): 16.4 s | Bas (6 h): 0% | Eos (6 h): 1% | Fbg (6 h): 327.6 mg/dL | Hb (6 h): 13.3 g/dL | Ht (6 h): 39% | Lym (6 h): 72.8% | MCH (6 h): 21.8 pg | MCHC (6 h): 34% | MCV (6 h): 63.9 fL | Mono (6 h): 3.4% | Neu (6 h): 22.2% | PT (6 h): 12.9 s | Plat (6 h): 104.3 x10_4/uL | RBC (6 h): 609.8 x10_4/ul | Ret (6 h): 8.3% | WBC (6 h): 100.8 x10_2/uL | KIDNEY_L (6 h): 0.9 g | KIDNEY_R (6 h): 1 g | KIDNEY_TOTAL (6 h): 1.9 g | LIVER (6 h): 8.9 g | ALP (6 h): 1394.4 IU/L | ALT (6 h): 39.8 IU/L | AST (6 h): 73.2 IU/L | BUN (6 h): 8.6 mg/dL | CRE (6 h): 0.2 mg/dL | DBIL (6 h): 0.004 mg/dL | GLC (6 h): 170.2 mg/dL | K (6 h): 4 meq/L | LDH (6 h): 52.4 IU/L | Na (6 h): 142.6 meq/L | PL (6 h): 136.4 mg/dL | RALB (6 h): 2.5 g/dL | TBIL (6 h): 0.038 mg/dL | TC (6 h): 86.2 mg/dL | TG (6 h): 41.8 mg/dL | TP (6 h): 5.4 g/dL | gamma-GTP (6 h): 1.2 IU/L | TERMINAL_BW (9 h): 217.8 g | APTT (9 h): 16.8 s | Bas (9 h): 0% | Eos (9 h): 0.8% | Fbg (9 h): 288 mg/dL | Hb (9 h): 13.4 g/dL | Ht (9 h): 39.5% | Lym (9 h): 80.6% | MCH (9 h): 21.7 pg | MCHC (9 h): 33.9% | MCV (9 h): 64 fL | Mono (9 h): 2.4% | Neu (9 h): 15.4% | PT (9 h): 13.5 s | RBC (9 h): 617.2 x10_4/ul | Ret (9 h): 7.6% | WBC (9 h): 96.4 x10_2/uL | KIDNEY_L (9 h): 0.9 g | KIDNEY_R (9 h): 0.9 g | KIDNEY_TOTAL (9 h): 1.8 g | LIVER (9 h): 8.8 g | ALP (9 h): 1362.6 IU/L | ALT (9 h): 39.4 IU/L | AST (9 h): 72.8 IU/L | BUN (9 h): 10.2 mg/dL | CRE (9 h): 0.2 mg/dL | DBIL (9 h): 0.01 mg/dL | GLC (9 h): 175.6 mg/dL | K (9 h): 3.8 meq/L | LDH (9 h): 49.8 IU/L | Na (9 h): 143 meq/L | PL (9 h): 133 mg/dL | RALB (9 h): 2.6 g/dL | TBIL (9 h): 0.046 mg/dL | TC (9 h): 75.8 mg/dL | TG (9 h): 67.6 mg/dL | TP (9 h): 5.5 g/dL | gamma-GTP (9 h): 1.2 IU/L | TERMINAL_BW (24 h): 220.3 g | APTT (24 h): 16.3 s | Bas (24 h): 0% | Eos (24 h): 1% | Fbg (24 h): 294.8 mg/dL | Hb (24 h): 13 g/dL | Ht (24 h): 38% | Lym (24 h): 78.2% | MCH (24 h): 21.5 pg | MCHC (24 h): 34.1% | MCV (24 h): 63.1 fL | Mono (24 h): 2.6% | Neu (24 h): 17.4% | PT (24 h): 12.8 s | Plat (24 h): 119 x10_4/uL | RBC (24 h): 603.2 x10_4/ul | Ret (24 h): 7.9% | WBC (24 h): 78.3 x10_2/uL | KIDNEY_L (24 h): 0.9 g | KIDNEY_R (24 h): 0.9 g | KIDNEY_TOTAL (24 h): 1.9 g | LIVER (24 h): 10.2 g | ALP (24 h): 1641.6 IU/L | ALT (24 h): 49.8 IU/L | AST (24 h): 75.6 IU/L | BUN (24 h): 15.8 mg/dL | CRE (24 h): 0.2 mg/dL | DBIL (24 h): 0.012 mg/dL | GLC (24 h): 182.2 mg/dL | K (24 h): 4.4 meq/L | LDH (24 h): 59 IU/L | Na (24 h): 141.8 meq/L | PL (24 h): 150.8 mg/dL | RALB (24 h): 2.7 g/dL | TBIL (24 h): 0.03 mg/dL | TC (24 h): 88.4 mg/dL | TG (24 h): 82 mg/dL | TP (24 h): 5.7 g/dL | gamma-GTP (24 h): 1.2 IU/L
